# Literature values, collected in patent EP4407007A1, “ECO-FRIENDLY INK FORMULATION, PARTICULARLY FOR BALLPOINT PENS AND ASSOCIATED BALLPOINT PEN CARTRIDGE” (Reinol S.r.l., priority 2023, dated 2024).
# Assays:
# [1] = hazard category
# [2] = hazard category; remark: listed apart in the source
# Fish = conditions: hazard category
Compound,Skin irritation [1],Acute toxicity Oral inhalation [2],Aquatic toxicity Fish (Fish)
"CC1(C)OCC(CO)O1 (racemic) [2,2-dimethyl-1,3-dioxolane-4-yl-methanol]",Unclassified,Unclassified,Unclassified
OCc1ccccc1 [benzyl alcohol],Category 2,Category 4,Category 2
